Data: patent US12427134B2, “Methods of reducing the risk of cardiovascular events in a subject with atrial fibrillation and/or atrial flutter” (priority 2019, dated 2025)

System: hypertriglyceridemic patients with cardiovascular disease or at high risk for cardiovascular disease
Assay: REDUCE-IT: treatment-emergent adverse events and serious adverse events (safety population)

CC/C=C\C/C=C\C/C=C\C/C=C\C/C=C\CCCC(=O)OCC [AMR101, eicosapentaenoic acid ethyl ester]
TEAE: Respiratory, thoracic, and mediastinal disorders, % (Region Westernized (N = 2906)): (30.9) %
Diarrhea leading to study drug withdrawal, patients (Safety population): 1.1%
Nausea leading to study drug withdrawal, patients (Safety population): 0.6%
Patients with SAE leading to study drug withdrawal (Safety population): 2.2%
Patients with TEAE leading to study drug withdrawal (Safety population): 7.9%
Patients with at least one SAE (Safety population): 30.6%
Patients with at least one TEAE (Safety population): 81.8%
Patients with serious TEAE leading to death (Safety population): 2.3%
SAE acute kidney injury, patients (Safety population): 1.1
SAE angina pectoris, patients (Safety population): 1.2%
SAE chest pain, patients (Safety population): 1.6%
SAE class GI disorders, patients (Safety population): 4.7%
SAE class cardiac disorders, patients (Safety population): 4.7%
SAE class musculoskeletal and connective tissue disorders, patients (Safety population): 4.6%
SAE class neoplasms benign, malignant, and unspecified, patients (Safety population): 5.4%
SAE non-cardiac chest pain, patients (Safety population): 1.2%
SAE osteoarthritis, patients (Safety population): 2.0%
Serious TEAE (Safety population): 1252 (30.6%) n (%)
Serious TEAE Leading to Death (Safety population): 94 (2.3%) n (%)
Serious TEAE Leading to Withdrawal of Study Drug (Safety population): 88 (2.2%) n (%)
Serious TEAE: Pneumonia (Safety population): 105 (2.6%) n (%)
Serious adverse event pneumonia, patients (Safety population): 2.6%
Serious anemia, patients (Safety population): 0.5%
Severe TEAE acute kidney injury, patients (Safety population): 0.7%
Severe TEAE chest pain, patients (Safety population): 0.7%
Severe TEAE osteoarthritis, patients (Safety population): 0.8%
Severe TEAE pneumonia, patients (Safety population): 1.5%
Severe TEAE, patients with at least one (Safety population): 19.7%
Study drug-related SAE, patients with at least one (Safety population): 0.2%
Study drug-related TEAE class GI disorders, patients (Safety population): 7.4%
Study drug-related TEAE diarrhea, patients (Safety population): 2.7%
Study drug-related TEAE leading to study drug withdrawal, patients (Safety population): 3.4%
Study drug-related TEAE, patients with at least one (Safety population): 12.6%
Study drug-related diarrhea leading to study drug withdrawal, patients (Safety population): 1.0%
TEAE Leading to Withdrawal of Study Drug (Safety population): 321 (7.9%) n (%)
TEAE anemia, patients (Safety population): 4.7%
TEAE atrial fibrillation, patients (Safety population): 5.3%
TEAE class GI disorders leading to study drug withdrawal, patients (Safety population): 3.6%
TEAE class general disorders and administration site conditions, patients (Safety population): 25.2%
TEAE class musculoskeletal and connective tissue disorders, patients (Safety population): 35.9%
TEAE class nervous system disorders, patients (Safety population): 24.6%
TEAE constipation, patients (Safety population): 5.4%
TEAE diarrhea, patients (Safety population): 9%
TEAE gastrointestinal disorders, patients (Safety population): 33.0%
TEAE of special interest: abnormal glucose control, patients (Safety population): 15.2%
TEAE of special interest: hepatic disorders, patients (Safety population): 5.4%
TEAE peripheral edema, patients (Safety population): 6.5%
TEAE: Anemia (Safety population): 191 (4.7%) n (%)
TEAE: Angina pectoris (Safety population): 200 (4.9%) n (%)
TEAE: Arthralgia (Safety population): 313 (7.7%) n (%)
TEAE: Atrial fibrillation (Safety population): 215 (5.3%) n (%)
TEAE: Back pain (Safety population): 335 (8.2%) n (%)
TEAE: Bronchitis (Safety population): 306 (7.5%) n (%)
TEAE: Cataract (Safety population): 233 (5.7%) n (%)
TEAE: Chest pain (Safety population): 273 (6.7%) n (%)
TEAE: Constipation (Safety population): 221 (5.4%) n (%)
TEAE: Cough (Safety population): 241 (5.9%) n (%)
TEAE: Diarrhea (Safety population): 367 (9.0%) n (%)
TEAE: Dizziness (Safety population): 235 (5.7%) n (%)
TEAE: Dyspnea (Safety population): 254 (6.2%) n (%)
TEAE: Fatigue (Safety population): 228 (5.6%) n (%)
TEAE: Gastroesophageal Reflux Disease (Safety population): 124 (3.0%) n (%)
TEAE: Gastrointestinal disorders (Safety population): 1350 (33.0%) n (%)
TEAE: Hypertension (Safety population): 320 (7.8%) n (%)
TEAE: Influenza (Safety population): 263 (6.4%) n (%)
TEAE: Nasopharyngitis (Safety population): 314 (7.7%) n (%)
TEAE: Nausea (Safety population): 190 (4.6%) n (%)
TEAE: Osteoarthritis (Safety population): 241 (5.9%) n (%)
TEAE: Pain in extremity (Safety population): 235 (5.7%) n (%)
TEAE: Peripheral edema (Safety population): 267 (6.5%) n (%)
TEAE: Pneumonia (Safety population): 263 (6.4%) n (%)
TEAE: Upper respiratory tract infection (Safety population): 312 (7.6%) n (%)
TEAE: Urinary tract infection (Safety population): 253 (6.2%) n (%)
TEAE of special interest: Hepatic disorders, % (Safety population N = 4089, P-value 0.3180): (5.4) %
TEAE of special interest: Abnormal glucose control, % (Safety population N = 4089, P-value 0.8059): (15.2) %
CEC-adjudicated CV deaths (excluding deaths with undetermined cause), % (Safety population, N = 4089): (3.4) %
CEC-adjudicated Deaths with undetermined cause, % (Safety population, N = 4089): (0.9) %
CEC-adjudicated Non-CV deaths, % (Safety population, N = 4089): (2.4) %
CEC-adjudicated deaths: Total mortality, % (Safety population, N = 4089): (6.7) %
Patients with at least 1 TEAE, % (Safety population, N = 4089): (81.8) %
Patients with at least 1 serious TEAE, % patients (Safety population, N = 4089): (30.6) %
Patients with at least 1 serious TEAE, n patients (Safety population, N = 4089): 1252
Patients with at least 1 severe TEAE, % (Safety population, N = 4089): (19.7) %
Patients with at least 1 study drug-related TEAE leading to study drug withdrawal, % patients (Safety population, N = 4089): (3.4) %
Patients with at least 1 study drug-related TEAE leading to study drug withdrawal, n patients (Safety population, N = 4089): 139
Patients with at least 1 study drug-related TEAE, % (Safety population, N = 4089): (12.6) %
Serious TEAE Leading to Death, % (Safety population, N = 4089): (2.3) %
Serious TEAE Leading to Withdrawal of Study Drug, % (Safety population, N = 4089): (2.2) %
Serious TEAE, % (Safety population, N = 4089): (30.6) %
Serious adverse event - Acute kidney injury, % patients (Safety population, N = 4089): (1.1) %
Serious adverse event - Acute kidney injury, n patients (Safety population, N = 4089): 47
Serious adverse event - Acute respiratory failure, % patients (Safety population, N = 4089): (0.5) %
Serious adverse event - Acute respiratory failure, n patients (Safety population, N = 4089): 19
Serious adverse event - Anemia, % patients (Safety population, N = 4089): (0.5) %
